In series [1] the test system is Toxoplasma gondii. Briefly: Anti-tachyzoite activity against RFP-expressing Toxoplasma gondii RH Type 1 infected in NHDF cells assessed as inhibition of parasite proliferation measured after 72 hrs by fluorescence plate reader. In kind it is functional. The following applies: RH Type 1, NHDF, read-out: ED50 (the source's name).
Series [2] has as its system Toxoplasma gondii. Briefly: Anti-bradyzoite activity against Toxoplasma gondii ESG reporter strain infected in NHDF cells assessed as induction of cyst formation measured after 5 days under alkaline condition by TEM analysis. Type of series: functional, organism-based. The conditions noted are these: time 5.0 day.
Series [3] has as its system Toxoplasma gondii. Briefly: Anti-bradyzoite activity against Toxoplasma gondii ESG reporter strain infected in NHDF cells assessed as morphological alteration at 0.625 uM measured after 5 days under alkaline condition by TEM analysis. In kind it is functional, organism-based. The conditions noted are these: time 5.0 day.
Series [4] concerns Toxoplasma gondii. Briefly: Induction of nuclear fragmentation in RFP-expressing Toxoplasma gondii RH Type 1 at 156 nM after 72 hrs by TEM analysis. Type of series: functional, organism-based. The following applies: NHDF.
Series [5] has as its system Toxoplasma gondii. Put plainly: Induction of cytoplasmic vacuolization in RFP-expressing Toxoplasma gondii RH Type 1 at 156 nM after 72 hrs by TEM analysis. Type of series: functional, organism-based.
The subject of series [6] is Toxoplasma gondii. Briefly: Anti-bradyzoite activity against Toxoplasma gondii ESG reporter stain infected in NHDF cells assessed as parasitic infection at 0.625 uM measured after 60 days by optical microscopic analysis. Type of series: functional, organism-based. The conditions noted are these: time 60.0 day.
The subject of series [7] is Toxoplasma gondii. Briefly: Anti-bradyzoite activity against Toxoplasma gondii ESG reporter strain infected in NHDF cells assessed as increase in BAG-positive vacuole number at 0.625 uM pretreated with PYR for 3 days followed by compound treatment and further incubated for 4 days. In kind it is functional, organism-based. The conditions noted are these: time 4.0 day.

Series [8] can be described thus: Selectivity index, ratio of CC50 for cytotoxicity against NHDF cells to ED50 for Anti-tachyzoite activity against RFP-expressing Toxoplasma gondii RH Type 1 infected in NHDF cells. In kind it is toxicity, cell-based. The following applies: human; read-out: Selectivity Index.
For series [9], the system named is Toxoplasma gondii. Briefly: Anti-tachyzoite activity against RFP-expressing Toxoplasma gondii RH Type 1 infected in NHDF cells assessed as inhibition of plaque formation at 0.312 uM when host cells pretreated for 3 days followed by infection and removal of medium containing compounds and subsequent addition of fresh medium without compounds and measured after 7 days by crystal violet staining based optical microscopic analysis. In kind it is functional, organism-based. The following applies: time 3.0 day.

Series [10] concerns Toxoplasma gondii. Put plainly: Anti-bradyzoite activity against Toxoplasma gondii ESG reporter stain infected in NHDF cells assessed as parasite proliferation at 0.325 uM measured after 30 days by optical microscopic analysis. In kind it is functional, organism-based. The following applies: time 30.0 day.
For series [11], the system named is Toxoplasma gondii. Briefly: Anti-tachyzoite activity against RFP-expressing Toxoplasma gondii RH Type 1 infected in NHDF cells assessed as inhibition of parasite proliferation measured after 96 hrs by fluorescence plate reader. Type of series: functional. The conditions noted are these: RH Type 1, NHDF, read-out: ED50 (the source's name).
In series [12] the test system is Toxoplasma gondii. Put plainly: Induction of cell death in RFP-expressing Toxoplasma gondii RH Type 1 assessed as DNA fragmentation at 156 nM after 72 hrs by immunoblotting analysis. Type of series: functional, organism-based. Background: A western blot detects proteins with antibodies after separation by electrophoresis.
The test system of series [13] is Toxoplasma gondii. Briefly: Induction of mitochondria swelling in RFP-expressing Toxoplasma gondii RH Type 1 at 156 nM after 72 hrs by TEM analysis. In kind it is functional, organism-based. The conditions noted are these: NHDF.
The nature of series [14]: Cytotoxicity against NHDF cells assessed as reduction in cell viability measured after 96 hrs by MTS assay. In kind it is cell-based. The following applies: human. (Tetrazolium assays rely on reduction of a dye to a coloured formazan, in cell work by metabolically active cells.)
Series [15] deals with Toxoplasma gondii. Put plainly: Anti-tachyzoite activity against RFP-expressing Toxoplasma gondii RH Type 1 infected in NHDF cells assessed as plaque formation at 0.156 uM incubated for 96 hrs followed by removal of medium containing compounds and subsequent addition of fresh medium without compounds and measured after 8 days by crystal violet staining based optical microscopic analysis. In kind it is functional, organism-based.

Series [16] has as its system Toxoplasma gondii. Briefly: Induction of vacuole formation in Toxoplasma gondii ESG reporter strain infected in NHDF cells assessed as increase in BAG positive vacuole number pretreated with PYR for 3 days followed by compound treatment and further incubated for 4 days. Type of series: functional, organism-based. The following applies: time 4.0 day.
For series [17], the system named is Toxoplasma gondii. Briefly: Anti-tachyzoite activity against RFP-expressing Toxoplasma gondii RH Type 1 infected in NHDF cells assessed as inhibition of plaque formation at 0.312 uM incubated for 96 hrs followed by removal of medium containing compounds and subsequent addition of fresh medium without compounds and measured after 8 days by crystal violet staining based optical microscopic analysis. In kind it is functional, organism-based.

Series [18] relates to Toxoplasma gondii. Put plainly: Anti-bradyzoite activity against Toxoplasma gondii ESG reporter strain infected in NHDF cells assessed as cell lysis measured after 21 days. Type of series: functional, organism-based. The following applies: time 21.0 day.
Series [19] deals with Toxoplasma gondii. Briefly: Anti-tachyzoite activity against RFP-expressing Toxoplasma gondii RH Type 1 infected in NHDF cells assessed as viable cells recovery causing host cell lysis at 5 uM incubated for 96 hrs followed by removal of medium containing compounds and subsequent addition of fresh medium without compounds and measured after 8 days by crystal violet staining based optical microscopic analysis relative to control. Type of series: functional.

Each structure is given as a SMILES string. Calls of active or inactive are those of the source. The calls are words filed in the database; no cut-off is given here.

Turning to `c1ccc2c(Nc3ccc4ccc5cccnc5c4n3)cccc2c1`, the EC50 in the series on Toxoplasma gondii [1] stood at 240 nM; with Toxoplasma gondii [11], 150 nM. In addition, the result in the series with Toxoplasma gondii [2], in the series with Toxoplasma gondii [3], in the series on Toxoplasma gondii [4], in the series with Toxoplasma gondii [5], in the series on Toxoplasma gondii [7] and with Toxoplasma gondii [9] was Active. The outcome in the series on Toxoplasma gondii [10], in the series with Toxoplasma gondii [12], in the series on Toxoplasma gondii [13], in the series with Toxoplasma gondii [15], in the series on Toxoplasma gondii [16] and with Toxoplasma gondii [17] was Active. In the series with Toxoplasma gondii [6], the result was inactive. Also, the selectivity ratio in series [8] turned out to be 114. In series [14], the CC50 (as a rule, the concentration at which the toxic effect on the cells reaches its halfway point) at 96 h was 11.4 µM.
For `N#Cc1ccc(Nc2ccc3ccc4cccnc4c3n2)cc1`, the values for the EC50 in the series with Toxoplasma gondii [1] and in the series with Toxoplasma gondii [11] were 1060 nM and 1660 nM, respectively. In addition, the outcome in the series on Toxoplasma gondii [18] was Active. Further, the selectivity ratio in series [8] came to 21. Also, in the series on Toxoplasma gondii [19], the Activity worked out at 100%. Further, in series [14], the CC50 at 96 h was found to be 31 µM.

The values are drawn from ChEMBL document CHEMBL5055660, “In vitro activity of N-phenyl-1,10-phenanthroline-2-amines against tachyzoites and bradyzoites of Toxoplasma gondii” (Bioorg Med Chem, 2021).
